# Data reported in patent publication US20040019018A1, “Rigid pyrrolidone modulators of pkc” (priority 2003, published 2004).
# Columns and labels:
# sAPP = conditions: cited from earlier work
# PC12 cells = conditions: cited from earlier work
# 113pS K+ channels = conditions: cited from earlier work
# [1] = system: LNCaP prostate cancer cells; assay: Induction of apoptosis in LNCaP prostate cancer cells (DAPI staining); type: cell-based
# Experimental: The capacity of inducing apoptosis by compound (1) was evaluated in a model of LNCaP prostate cancer cells. It is well established that in this model phorbol esters (e.g., PMA) activate PKC to induce apoptosis (reference 13). LNCaP cells were treated with compound (1) for 1 h, and apoptosis was assessed 24 h later.
# Control cells or cells infected for 14 h with adenoviruses for LacZ, PKCα, or PKCδ (multiplicity of infection=10 pfu/cell) were treated with different concentrations of compound (1) or PMA for 1 h. Cells were collected 24 h later and stained with DAPI. The incidence of apoptosis in each preparation was analyzed by counting 500 cells and determining the percentage of apoptotic cells. Results are the mean±standard error of three independent experiments.
# It is well established that PKCα and PKCδ are the isozymes that mediate phorbol ester-induced apoptosis in LNCaP cells (references 13c-e). A model that has been used to assess isozyme-specificity is the overexpression of specific PKCs by an adenoviral system. Infection of LNCaP cells with adenoviruses for PKCs leads to a high expression of the corresponding PKC isozyme, as determined by Western-blot analysis, kinase activity, or [^3H]PDBu binding (reference 13e).
smiles,measurement,setting,value
"CCCCCCCCC#Cc1ccc2c(c1)C[C@@H](CO)NC(=O)[C@H](C(C)C)N2C [BL, (2S, 5S)-8-(1-decynyl)benzolactam]",sAPP secretion in control fibroblasts,"sAPP; control fibroblasts, 10 μM BL",significant increases of sAPP secretion
same,sAPP secretion over basal levels,sAPP; fibroblasts,enhance sAPP secretion over basal levels
same,sAPP secretion,PC12 cells,~3 fold
same,responsiveness of AD fibroblast cell lines to the TEA challenge,113pS K+ channels,restored the responsiveness
"CCCCCCCCCCCCCC(=O)O[C@@H]1[C@@H](C)[C@@]2(O)[C@@H](C=C(CO)C[C@]3(O)C(=O)C(C)=C[C@@H]23)[C@@H]2C(C)(C)[C@]12OC(C)=O [PMA, reference compound]",apoptotic effect with control adenovirus,[1]; LNCaP cells infected with LacZ adenovirus,did not affect the apoptotic effect
same,apoptotic response with overexpression of PKC isozymes,[1]; LNCaP cells infected with adenoviruses for PKCα or PKCδ,marked potentation
CN[C@@H]1C[C@H]2O[C@@](C)([C@@H]1OC)n1c3ccccc3c3c4c(c5c6ccccc6n2c5c31)C(=O)NC4 [Staurosporine],effect on BL-induced sAPP secretion,sAPP; control and AD fibroblasts,eliminated the effects of BL
